# Results: ChEMBL document CHEMBL1201862, “PubChem BioAssay data set” (2004)
# Calls of active or inactive are those of the source.
# Key:
# Troponin, cardiac muscle = Troponin, cardiac muscle (Homo sapiens, UniProt P19429+P45379+P63316); assay: Fluorescence-based biochemical high throughput dose response assay for activators of the calcium sensitivity of cardiac Regulated Thin Filaments (RTF). [Related pubchem assays (depositor defined):AID493008, AID493018, AID504382, AID504383]; type: protein-complex assay
# [1] = molecular target: Voltage-gated inwardly rectifying potassium channel KCNH2 (Homo sapiens, UniProt Q12809); settings: Potency;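 further: confirmatory quantitative high-throughput screen measuring inhibition of hERG channel activity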
# [2] = molecular target: T1, Tyrosine-protein phosphatase non-receptor type 22 (Homo sapiens, UniProt Q9Y2R2); type: functional
# T1 sequence (Q9Y2R2 whole entry): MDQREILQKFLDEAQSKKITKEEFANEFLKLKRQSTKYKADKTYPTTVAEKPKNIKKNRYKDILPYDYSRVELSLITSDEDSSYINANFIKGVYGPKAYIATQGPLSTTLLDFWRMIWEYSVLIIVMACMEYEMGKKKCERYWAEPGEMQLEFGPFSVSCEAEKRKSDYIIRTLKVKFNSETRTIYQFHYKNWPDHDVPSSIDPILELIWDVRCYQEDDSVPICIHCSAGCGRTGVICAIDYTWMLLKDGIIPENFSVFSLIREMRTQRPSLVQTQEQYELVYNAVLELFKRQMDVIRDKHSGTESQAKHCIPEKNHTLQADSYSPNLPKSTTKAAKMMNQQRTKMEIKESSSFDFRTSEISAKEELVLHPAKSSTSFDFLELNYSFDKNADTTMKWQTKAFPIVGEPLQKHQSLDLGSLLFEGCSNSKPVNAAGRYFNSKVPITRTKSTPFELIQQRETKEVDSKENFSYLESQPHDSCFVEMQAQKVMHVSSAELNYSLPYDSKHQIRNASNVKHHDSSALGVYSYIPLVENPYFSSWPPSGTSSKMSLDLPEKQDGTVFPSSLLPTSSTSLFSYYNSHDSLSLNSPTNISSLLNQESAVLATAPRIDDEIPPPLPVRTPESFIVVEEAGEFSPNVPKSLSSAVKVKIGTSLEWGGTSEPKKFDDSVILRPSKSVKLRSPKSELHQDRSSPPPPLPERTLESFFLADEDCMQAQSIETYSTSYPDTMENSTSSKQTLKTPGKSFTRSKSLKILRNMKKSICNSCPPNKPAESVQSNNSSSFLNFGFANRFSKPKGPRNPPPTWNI
# [3] = molecular target: T1, Tyrosine-protein phosphatase non-receptor type 22; type: functional; remark: listed apart in the source
# [4] = molecular target: T2, Tyrosine-protein phosphatase non-receptor type 7 (Homo sapiens, UniProt P35236); type: functional
# T2 sequence (P35236 whole entry): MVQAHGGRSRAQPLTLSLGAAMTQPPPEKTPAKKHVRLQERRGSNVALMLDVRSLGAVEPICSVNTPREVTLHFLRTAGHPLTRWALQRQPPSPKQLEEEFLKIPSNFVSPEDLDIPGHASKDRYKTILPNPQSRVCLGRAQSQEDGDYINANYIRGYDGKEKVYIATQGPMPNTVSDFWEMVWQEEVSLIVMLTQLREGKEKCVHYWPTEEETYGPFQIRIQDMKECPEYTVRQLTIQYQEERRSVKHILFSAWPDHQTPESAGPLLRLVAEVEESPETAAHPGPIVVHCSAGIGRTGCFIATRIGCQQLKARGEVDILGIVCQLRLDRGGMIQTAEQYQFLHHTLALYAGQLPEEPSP
# [5] = molecular target: T2, Tyrosine-protein phosphatase non-receptor type 7; assay: HePTP (PTPN7) phosphatase inhibitor potency, SAR follow-up, biochemical, set 2 (AID 449736); type: functional
# Trypsin = Trypsin (Sus scrofa, UniProt P00761); assay: porcine trypsin inhibitors, dose response, selectivity assay for Rce1 protease inhibitor project, biochemical, quenched peptide fluorescence, cherry-pick (AID 488789)
# Chain of Trypsin (P00761 whole entry): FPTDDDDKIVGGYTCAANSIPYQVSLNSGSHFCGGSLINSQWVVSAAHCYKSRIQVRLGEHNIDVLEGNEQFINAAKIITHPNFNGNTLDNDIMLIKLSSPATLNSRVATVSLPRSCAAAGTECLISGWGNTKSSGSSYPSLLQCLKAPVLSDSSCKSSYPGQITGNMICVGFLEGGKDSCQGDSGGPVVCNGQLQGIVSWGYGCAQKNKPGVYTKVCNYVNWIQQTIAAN
# Phosphomannomutase 2 = Phosphomannomutase 2 (Homo sapiens, UniProt O15305); assay: Counter screen SAR assay for PMM2 inhibitors via a fluorescence intensity assay. [Related pubchem assays (depositor defined):AID1545, AID1574]
# [6] = molecular target: T3, Mannose-6-phosphate isomerase (Homo sapiens, UniProt P34949); assay: PMI enzyme inhibitors, confirmation, biochemical, fluorescence intensity (AID 1535)
# T3 sequence (P34949 whole entry): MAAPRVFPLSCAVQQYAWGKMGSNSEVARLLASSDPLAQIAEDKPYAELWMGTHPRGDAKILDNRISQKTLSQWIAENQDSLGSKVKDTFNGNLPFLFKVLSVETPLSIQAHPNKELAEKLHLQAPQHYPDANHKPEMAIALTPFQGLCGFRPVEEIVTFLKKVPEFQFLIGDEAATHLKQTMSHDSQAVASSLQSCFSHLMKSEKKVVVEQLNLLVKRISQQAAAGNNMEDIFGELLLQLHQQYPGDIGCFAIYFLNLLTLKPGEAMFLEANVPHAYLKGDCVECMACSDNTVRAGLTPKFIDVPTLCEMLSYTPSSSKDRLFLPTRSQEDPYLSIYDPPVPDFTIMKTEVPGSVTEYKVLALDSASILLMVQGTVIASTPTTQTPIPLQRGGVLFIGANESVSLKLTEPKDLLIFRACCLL
# [7] = molecular target: E3 ubiquitin-protein ligase XIAP (Homo sapiens, UniProt P98170); assay: Counter Screen using XIAP-Bir3 for Chemical Antagonists of Bir1/2 domains of IAP-family anti-apoptotic proteins. [Related pubchem assays (depositor defined):AID1018, AID1449, AID1514, AID1638, AID1749, AID1750, AID488957, AID488963]
# [8] = tested on: Streptococcus sp. 'group A'; assay: growth inhibition of control SK(-) GAS strain, dose response, counter-screen for streptokinase expression inhibitor project, luminescence, kanamycin, BacTiterGlo, confirmation (AID 1900); type: functional, organism-based
# [9] = molecular target: T4, Carboxy-terminal domain RNA polymerase II polypeptide A small phosphatase 1 (Homo sapiens, UniProt Q9GZU7); assay: inhibitors of CTDSP1, concentration-response testing, biochemical assay, absorbance-based, actives from ultra-high-throughput screening (AID 540297); type: functional
# T4 sequence (Q9GZU7 whole entry): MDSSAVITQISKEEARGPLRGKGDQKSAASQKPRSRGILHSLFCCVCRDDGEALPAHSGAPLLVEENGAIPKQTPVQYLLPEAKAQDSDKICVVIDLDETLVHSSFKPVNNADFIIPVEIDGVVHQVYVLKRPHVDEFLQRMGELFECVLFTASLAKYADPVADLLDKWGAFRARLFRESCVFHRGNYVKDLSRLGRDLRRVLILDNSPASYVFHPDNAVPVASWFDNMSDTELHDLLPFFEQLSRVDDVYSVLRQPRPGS
# [10] = molecular target: Eukaryotic translation initiation factor 4H (Homo sapiens, UniProt Q15056); assay: human eIF4H binding inhibitors, primary screen, translation initiation inhibitor project, biochemical, uHTS, fluorescence polarization (AID 2012)
# [11] = molecular target: Polyadenylate-binding protein 1 (Homo sapiens, UniProt P11940); assay: PABP poly(A) RNA binding inhibitors, primary screen, biochemical, fluorescence polarization, uHTS (AID 2014)
# Chain of Polyadenylate-binding protein 1 (P11940 whole entry): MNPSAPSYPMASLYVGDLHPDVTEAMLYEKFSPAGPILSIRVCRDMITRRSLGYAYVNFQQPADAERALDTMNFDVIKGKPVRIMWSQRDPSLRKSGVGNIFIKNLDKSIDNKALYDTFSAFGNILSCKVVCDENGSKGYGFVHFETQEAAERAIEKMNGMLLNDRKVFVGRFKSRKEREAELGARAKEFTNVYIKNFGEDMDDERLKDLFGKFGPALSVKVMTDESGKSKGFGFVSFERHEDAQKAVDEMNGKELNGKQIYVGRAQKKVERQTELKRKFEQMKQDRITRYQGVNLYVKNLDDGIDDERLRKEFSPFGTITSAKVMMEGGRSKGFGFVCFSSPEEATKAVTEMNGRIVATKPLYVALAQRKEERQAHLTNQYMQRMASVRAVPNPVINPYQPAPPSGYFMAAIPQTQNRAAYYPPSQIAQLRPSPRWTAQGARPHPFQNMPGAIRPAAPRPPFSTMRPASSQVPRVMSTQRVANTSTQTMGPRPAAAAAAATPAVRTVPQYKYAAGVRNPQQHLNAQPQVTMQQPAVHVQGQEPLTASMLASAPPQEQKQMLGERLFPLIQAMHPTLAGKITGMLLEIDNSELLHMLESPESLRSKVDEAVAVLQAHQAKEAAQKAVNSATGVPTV
# Streptococcus = assay: Group A Streptococcus viability loss, dose response, counter-screen for streptokinase expression inhibitor project, luminescence, BacTiterGlo (AID 1915); type: functional, organism-based;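 further: potency for reduction of bacterial viability or growth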
# Streptokinase A = molecular target: T5, Streptokinase A (Streptococcus pyogenes serotype M1, UniProt P10520); assay: S. pyogenes streptokinase expression inhibitors, potency, dose response, plasminogen activation absorbance, OD405 (AID 1914); type: functional, Streptococcus pyogenes M1 GAS;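 further: secreted streptokinase activity via plasminogen activation per viability signal from cell pellet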
# T5 sequence (P10520 whole entry): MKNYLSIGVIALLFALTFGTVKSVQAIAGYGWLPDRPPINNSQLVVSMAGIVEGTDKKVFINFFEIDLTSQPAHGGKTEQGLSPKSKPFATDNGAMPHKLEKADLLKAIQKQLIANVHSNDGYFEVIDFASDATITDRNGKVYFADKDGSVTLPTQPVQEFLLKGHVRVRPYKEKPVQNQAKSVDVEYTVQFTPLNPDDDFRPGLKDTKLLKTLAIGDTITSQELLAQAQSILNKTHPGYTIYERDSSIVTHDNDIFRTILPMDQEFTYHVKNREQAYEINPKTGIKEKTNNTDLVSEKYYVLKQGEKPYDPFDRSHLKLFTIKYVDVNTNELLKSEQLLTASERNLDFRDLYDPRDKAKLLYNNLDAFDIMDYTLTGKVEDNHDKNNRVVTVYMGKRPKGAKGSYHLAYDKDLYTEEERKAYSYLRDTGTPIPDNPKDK
# [12] = Fluorescence-based cell-based high throughput dose response assay for inhibitors of the interaction of nucleotide-binding oligomerization domain containing 2 (NOD2) and the receptor-interacting serine-threonine kinase 2 (RIPK2).; type: functional; settings: Homo sapiens
# Beta-galactosidase = Beta-galactosidase (Escherichia coli, UniProt Q8VNN2); assay: beta-galactosidase enzyme inhibitors and activators, dose response, artefact control for CCR6 antagonist project, biochemical, E. coli enzyme, set 3 (AID 504712); type: functional
# [13] = THP-1 cell cytotoxicity, dose response, cytotoxicity control for Vif-APOBEC3G degradation inhibitor project, THP-1 cells (AID 1117359); type: functional; settings: Human immunodeficiency virus 1, THP-1
# [14] = molecular target: Voltage-dependent T-type calcium channel subunit alpha-1H (Homo sapiens, UniProt O95180); assay: Cav3.2 T-type channel inhibitors, cell-based, synthetic library set 1, calcium flux (AID 493022); type: functional
# Chain of Voltage-dependent T-type calcium channel subunit alpha-1H (O95180 whole entry): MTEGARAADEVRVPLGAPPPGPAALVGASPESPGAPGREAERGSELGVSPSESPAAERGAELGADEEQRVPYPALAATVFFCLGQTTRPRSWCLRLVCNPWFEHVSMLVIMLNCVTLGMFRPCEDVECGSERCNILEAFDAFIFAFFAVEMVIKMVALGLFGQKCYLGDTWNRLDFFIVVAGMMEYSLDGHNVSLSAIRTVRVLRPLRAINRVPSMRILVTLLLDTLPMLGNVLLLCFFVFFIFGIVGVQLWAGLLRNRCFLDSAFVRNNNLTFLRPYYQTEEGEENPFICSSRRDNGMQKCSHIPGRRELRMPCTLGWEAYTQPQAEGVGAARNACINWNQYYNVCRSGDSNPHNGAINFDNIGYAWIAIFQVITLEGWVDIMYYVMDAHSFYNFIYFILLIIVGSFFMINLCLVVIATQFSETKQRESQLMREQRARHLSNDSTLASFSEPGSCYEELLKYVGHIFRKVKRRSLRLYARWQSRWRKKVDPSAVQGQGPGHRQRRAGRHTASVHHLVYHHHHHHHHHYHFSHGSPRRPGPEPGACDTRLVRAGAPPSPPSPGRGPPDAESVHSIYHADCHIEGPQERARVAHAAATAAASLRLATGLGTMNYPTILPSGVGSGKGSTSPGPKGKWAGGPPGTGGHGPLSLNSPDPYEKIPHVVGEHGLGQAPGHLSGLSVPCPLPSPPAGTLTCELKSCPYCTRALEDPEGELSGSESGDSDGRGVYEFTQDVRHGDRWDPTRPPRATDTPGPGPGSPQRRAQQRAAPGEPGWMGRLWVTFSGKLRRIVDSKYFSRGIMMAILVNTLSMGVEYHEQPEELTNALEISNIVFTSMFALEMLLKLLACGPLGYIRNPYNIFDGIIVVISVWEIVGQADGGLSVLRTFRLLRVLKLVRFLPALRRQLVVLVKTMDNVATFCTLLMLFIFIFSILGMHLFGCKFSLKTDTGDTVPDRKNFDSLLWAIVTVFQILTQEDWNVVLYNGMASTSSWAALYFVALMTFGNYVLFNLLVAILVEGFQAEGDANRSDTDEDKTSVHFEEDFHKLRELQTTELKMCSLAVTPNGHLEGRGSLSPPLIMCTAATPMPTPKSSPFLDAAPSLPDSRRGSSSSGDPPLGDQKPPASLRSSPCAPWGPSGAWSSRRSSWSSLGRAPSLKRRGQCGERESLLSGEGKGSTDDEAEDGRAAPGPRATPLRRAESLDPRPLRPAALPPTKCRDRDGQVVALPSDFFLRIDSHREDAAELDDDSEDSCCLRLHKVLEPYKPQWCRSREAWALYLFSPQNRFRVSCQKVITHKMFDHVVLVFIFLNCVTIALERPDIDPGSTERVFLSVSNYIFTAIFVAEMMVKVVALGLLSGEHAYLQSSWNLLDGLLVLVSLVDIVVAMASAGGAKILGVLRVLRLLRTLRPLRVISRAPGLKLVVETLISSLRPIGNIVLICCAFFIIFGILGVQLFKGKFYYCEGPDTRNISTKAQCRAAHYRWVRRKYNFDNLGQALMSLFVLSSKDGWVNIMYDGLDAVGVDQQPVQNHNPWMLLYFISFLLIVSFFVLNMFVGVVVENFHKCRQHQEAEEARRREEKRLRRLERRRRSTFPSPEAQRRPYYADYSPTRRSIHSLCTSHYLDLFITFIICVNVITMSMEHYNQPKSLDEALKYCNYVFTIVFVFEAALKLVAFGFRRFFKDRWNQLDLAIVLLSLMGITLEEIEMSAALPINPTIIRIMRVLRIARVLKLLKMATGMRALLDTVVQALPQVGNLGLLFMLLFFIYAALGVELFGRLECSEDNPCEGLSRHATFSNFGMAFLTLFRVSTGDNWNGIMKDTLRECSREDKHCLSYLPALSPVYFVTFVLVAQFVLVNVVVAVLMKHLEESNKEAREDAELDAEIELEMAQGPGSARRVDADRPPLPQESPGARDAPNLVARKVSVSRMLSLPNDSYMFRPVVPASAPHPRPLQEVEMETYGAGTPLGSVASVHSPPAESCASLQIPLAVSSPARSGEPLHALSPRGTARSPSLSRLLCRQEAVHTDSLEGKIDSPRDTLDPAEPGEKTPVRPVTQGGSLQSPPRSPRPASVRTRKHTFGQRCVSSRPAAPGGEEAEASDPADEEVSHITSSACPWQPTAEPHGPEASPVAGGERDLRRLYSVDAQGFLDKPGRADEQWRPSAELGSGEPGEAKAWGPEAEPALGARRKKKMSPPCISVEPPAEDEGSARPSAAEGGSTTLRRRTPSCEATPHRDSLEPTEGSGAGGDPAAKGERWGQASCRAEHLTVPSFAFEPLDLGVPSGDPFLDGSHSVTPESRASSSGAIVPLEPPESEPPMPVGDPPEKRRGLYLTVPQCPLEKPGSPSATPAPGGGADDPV
# [15] = molecular target: G2/mitotic-specific cyclin-B1 (Homo sapiens, UniProt P14635); assay: G2/M cell cycle arrest in HeLa, late-stage follow-up, mechanism study for Wee1 degradation inhibitor project, FACS, panel member Cyclin B Degradation (AID 2088)
# Chain of G2/mitotic-specific cyclin-B1 (P14635 whole entry): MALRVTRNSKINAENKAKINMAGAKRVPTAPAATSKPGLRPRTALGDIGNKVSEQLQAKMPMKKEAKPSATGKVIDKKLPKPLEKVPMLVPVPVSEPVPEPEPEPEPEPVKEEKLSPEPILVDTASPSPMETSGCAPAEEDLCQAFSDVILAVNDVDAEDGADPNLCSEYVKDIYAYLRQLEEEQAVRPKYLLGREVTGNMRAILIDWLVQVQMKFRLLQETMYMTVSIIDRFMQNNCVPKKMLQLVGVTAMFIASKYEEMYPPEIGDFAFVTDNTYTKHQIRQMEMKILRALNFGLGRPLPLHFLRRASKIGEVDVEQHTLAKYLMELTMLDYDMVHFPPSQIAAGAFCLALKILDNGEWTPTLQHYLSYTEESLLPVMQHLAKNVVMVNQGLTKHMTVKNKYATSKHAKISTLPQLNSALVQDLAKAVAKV
# Wee1-like protein kinase = Wee1-like protein kinase (Homo sapiens, UniProt P30291); assay: G2/M cell cycle arrest in HeLa, late-stage follow-up, mechanism study for Wee1 degradation inhibitor project, FACS, panel member Wee1 Degradation (AID 2088)
# Chain of Wee1-like protein kinase (P30291 whole entry): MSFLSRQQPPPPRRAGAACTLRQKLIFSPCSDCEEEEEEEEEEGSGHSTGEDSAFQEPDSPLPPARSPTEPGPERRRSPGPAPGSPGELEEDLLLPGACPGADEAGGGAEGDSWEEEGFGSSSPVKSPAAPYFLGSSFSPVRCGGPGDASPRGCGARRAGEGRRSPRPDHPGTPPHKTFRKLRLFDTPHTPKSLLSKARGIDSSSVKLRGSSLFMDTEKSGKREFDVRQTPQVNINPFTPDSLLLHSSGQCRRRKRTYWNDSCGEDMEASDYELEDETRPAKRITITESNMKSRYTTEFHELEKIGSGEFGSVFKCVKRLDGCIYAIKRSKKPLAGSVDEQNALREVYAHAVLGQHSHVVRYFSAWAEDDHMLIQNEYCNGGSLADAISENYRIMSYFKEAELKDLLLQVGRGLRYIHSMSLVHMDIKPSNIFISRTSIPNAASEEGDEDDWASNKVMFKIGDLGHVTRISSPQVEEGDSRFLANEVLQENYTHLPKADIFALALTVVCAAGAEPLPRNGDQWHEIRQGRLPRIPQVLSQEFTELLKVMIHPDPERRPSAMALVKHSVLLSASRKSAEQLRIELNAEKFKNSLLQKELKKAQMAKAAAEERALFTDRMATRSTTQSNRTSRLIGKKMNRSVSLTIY
# HEK293 [16] = assay: cytotoxicity in HEK293T NF-kB-Luc cells, SAR follow-up, cytotoxicity control for NF-kB activator project, cell-based, resazurin fluorescence (AID 493251); type: functional; settings: Homo sapiens
# Jurkat = assay: SAR Analysis of small molecule inhibitors of […] specific antigen receptor-induced NF-kB activation in a Jurkat cell line using a luminescence assay - Set 3. [Related pubchem assays (depositor defined):AID435022, AID435025, AID465]; type: functional, cell-based; settings: Homo sapiens
# HEK293 [17] = assay: SAR Analysis of small molecule inhibitors of B-cell specific antigen receptor-induced NF-kB activation in a HEK-293T cell line using a luminescence assay - Set 2. [Related pubchem assays (depositor defined):AID435022, AID435025, AID489021]; type: functional, cell-based; settings: Homo sapiens
# [18] = insulin promoter down-regulators in MIN6 cells, imaging, high-content screening, mouse beta cells (AID 1628); type: functional
# [19] = cytotoxicity in MIN6 insulinoma cells, dose response, cytotoxicity control, cell-based, mouse insulinoma (AID 2122); type: functional;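 further: confirmatory high-throughput counterscreen run to flag cytotoxic compounds; mouse MIN-6 beta cells carrying an insulin promoter eGFP reporter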
# [20] = molecular target: Alkaline phosphatase, placental type (Homo sapiens, UniProt P05187); assay: PLAP enzyme inhibitors, confirmation, biochemical, luminescence (AID 1512); type: functional
# Chain of Alkaline phosphatase, placental type (P05187 whole entry): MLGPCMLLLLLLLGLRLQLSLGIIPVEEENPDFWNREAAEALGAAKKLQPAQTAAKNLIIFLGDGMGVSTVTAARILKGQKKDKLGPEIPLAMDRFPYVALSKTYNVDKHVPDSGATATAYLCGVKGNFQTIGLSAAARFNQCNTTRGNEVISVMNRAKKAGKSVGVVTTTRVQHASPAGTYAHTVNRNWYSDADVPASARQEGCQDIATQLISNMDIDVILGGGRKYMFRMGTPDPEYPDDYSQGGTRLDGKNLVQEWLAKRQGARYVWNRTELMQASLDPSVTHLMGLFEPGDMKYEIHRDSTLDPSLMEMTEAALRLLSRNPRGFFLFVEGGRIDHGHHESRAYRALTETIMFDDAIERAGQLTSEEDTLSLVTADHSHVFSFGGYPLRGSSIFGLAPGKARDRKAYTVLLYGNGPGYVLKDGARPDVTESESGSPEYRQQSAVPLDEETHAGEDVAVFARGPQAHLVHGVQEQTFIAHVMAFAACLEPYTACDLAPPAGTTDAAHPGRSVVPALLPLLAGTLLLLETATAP
# [21] = molecular target: Glyceraldehyde-3-phosphate dehydrogenase (Homo sapiens, UniProt P04406)
smiles,measurement,setting,value
CCOC(=O)/C(=C\c1c[nH]c2ccccc12)NC(C)=O,EC50,"Troponin, cardiac muscle",> 71.4 µM (inactive)
CC(C)COC(=O)c1ccccc1C(=O)OCC(C)C,AC50,[1],35.5 µM (inconclusive)
O=C(c1cc2cc(F)ccc2[nH]1)N1CCN(C(=O)c2ccco2)CC1,IC50,[2],> 79.4 µM (inactive)
same,IC50,[3],> 79.4 µM (inactive)
same,IC50,[4],> 79.4 µM (inactive)
NS(=O)(=O)c1ccc(NC(S)=NC2CCCC2)cc1,IC50,[5],28 µM (active)
NS(=O)(=O)c1ccc(NC(=O)/C=C/c2cn(-c3ccccc3)nc2-c2cccc(Cl)c2)cc1,AC50,Trypsin,81.4 µM (active)
Sc1n[nH]c(-c2ccccc2Cl)n1,IC50,Phosphomannomutase 2,> 100 µM (inactive)
same,IC50,[6],> 50 µM (inactive)
Cc1ccc(C(=O)COc2ccccc2C(=O)Nc2ccccc2)cc1,IC50,[7],> 20 µM (inactive)
O=C(Nc1ccc2c(c1)OCCO2)c1cccc(Cl)c1Cl,EC50,"Troponin, cardiac muscle",> 71.4 µM (inactive)
COc1ccc(C(CC(=O)N2CCCC(C)C2)c2c(OC)cc(OC)c3c(-c4ccccc4)cc(=O)oc23)cc1 (stereo unspecified),EC50,[8],14.5 µM (active)
same,IC50,[9],7.99 µM (active)
same,IC50,[10],8.23 µM (active)
same,IC50,[11],28.3 µM (active)
same,EC50,Streptococcus,> 150 µM (not active)
same,EC50,Streptokinase A,41.2 µM (active)
CCOC(=O)c1cc([N+](=O)[O-])cc([N+](=O)[O-])c1Sc1[nH]cnc2ncnc1-2,IC50,[12],3.29 µM (active)
same,IC50,Beta-galactosidase,> 66.6 µM (inactive)
same,CC50,[13],1.6 µM (active)
Cc1ccc(-c2nnc(NC(=O)COc3ccc(F)cc3)o2)cc1C,EC50,[14],10 µM (active)
CSc1cccc(NC(=O)CCCOc2cc(=O)n(C)c3ccccc23)c1,EC50,[15],> 49.7 µM (inactive)
same,EC50,Wee1-like protein kinase,> 49.7 µM (inactive)
O=C(COc1ccc(F)cc1Cl)Nc1nnc(-c2ccc3ccccc3c2)o1,EC50,[14],3.6 µM (active)
Cc1cc(O)nc(-n2nc(C)cc2NC(=O)c2ccccc2)n1,EC50,[15],> 49.7 µM (inactive)
same,EC50,Wee1-like protein kinase,> 16.6 µM (active)
CCOc1ccc(-c2nc(CSCC(=O)NCc3cccs3)c(C)o2)cc1,IC50,HEK293 [16],34.8 µM (inactive)
same,IC50,Jurkat,> 80 µM (inactive)
same,IC50,HEK293 [17],24.3 µM (inactive)
CCCNC(=O)CCc1nc(-c2ccc(C(C)(C)C)cc2)no1,IC50,HEK293 [16],> 80 µM (inactive)
same,IC50,Jurkat,> 80 µM (inactive)
same,IC50,HEK293 [17],9.19 µM (active)
Cn1c(N2CCOCC2)c(/C=N/OC(=O)c2cccnc2Cl)c2ccccc21,IC50,[18],3.37 µM (active)
same,IC50,[19],1.4 µM (active)
CC(C)(C)NC(=O)c1cc(-c2ccc(Cl)cc2Cl)n[nH]1,IC50,[20],> 100 µM (inactive)
same,IC50,[21],> 100 µM (not active)
